Broadly, the IC50 is the concentration needed to halve the response being measured.

Results on four compounds are retold here after article PMC3829888, “A Novel Quantitative Kinase Assay Using Bacterial Surface Display and Flow Cytometry” (PLoS ONE, 2013).

Data set [1] relates to Abl kinase. In words: Validation of BacKin assay: fluorescence of kinase-treated displaying cells by flow cytometry. The data set is classed as biochemical, Human. The conditions noted are these: after 30 min incubation with Abl kinase; 585/42 nm. (Flow cytometry measures light scatter and fluorescence of single cells or particles in a stream.)
For another data set, the target named is T1, Abl TK (Homo sapiens, UniProt P00519).
T1 construct: purchased Merck Millipore
Kind of data set: BacKin assay, inhibition and substrate competition (surface-displayed abltide phosphorylation, flow cytometry). The data set is classed as biochemical. The conditions noted are these: for IC50: 0.5 U/mL Abl kinase, 30 min at 37°C, flow cytometry, biotin-anti-PY/SAPE, average of three independent experiments±SD.

Data set [2] concerns Abl kinase. The conditions noted are these: in words.
The conditions of data set [3]: one U = 1 nmol of phosphate incorporated into 50 µM abltide per minute at 30°C, 100 µM ATP; ref Merck Millipore; cited from earlier work. As for the experimental part: The kinase activity of Bcr-Abl TK is located in the Abl domain (Figure 1). […] The activity of Abl TK was first examined using LC-MS. The time-course for phosphorylation of 60 µM of soluble abltide was followed with 0.5 U/mL Abl TK in kinase buffer (50 mM Tris-HCl, 10 mM MgCl2, 0.1 mM EDTA, 2 mM dithiothreitol and 0.01% (v/v) Brij 35, NEBuffer, New England BioLa ...

Residues, ends and D or L forms follow the SMILES beside them.

T1 sequence (P00519 whole entry): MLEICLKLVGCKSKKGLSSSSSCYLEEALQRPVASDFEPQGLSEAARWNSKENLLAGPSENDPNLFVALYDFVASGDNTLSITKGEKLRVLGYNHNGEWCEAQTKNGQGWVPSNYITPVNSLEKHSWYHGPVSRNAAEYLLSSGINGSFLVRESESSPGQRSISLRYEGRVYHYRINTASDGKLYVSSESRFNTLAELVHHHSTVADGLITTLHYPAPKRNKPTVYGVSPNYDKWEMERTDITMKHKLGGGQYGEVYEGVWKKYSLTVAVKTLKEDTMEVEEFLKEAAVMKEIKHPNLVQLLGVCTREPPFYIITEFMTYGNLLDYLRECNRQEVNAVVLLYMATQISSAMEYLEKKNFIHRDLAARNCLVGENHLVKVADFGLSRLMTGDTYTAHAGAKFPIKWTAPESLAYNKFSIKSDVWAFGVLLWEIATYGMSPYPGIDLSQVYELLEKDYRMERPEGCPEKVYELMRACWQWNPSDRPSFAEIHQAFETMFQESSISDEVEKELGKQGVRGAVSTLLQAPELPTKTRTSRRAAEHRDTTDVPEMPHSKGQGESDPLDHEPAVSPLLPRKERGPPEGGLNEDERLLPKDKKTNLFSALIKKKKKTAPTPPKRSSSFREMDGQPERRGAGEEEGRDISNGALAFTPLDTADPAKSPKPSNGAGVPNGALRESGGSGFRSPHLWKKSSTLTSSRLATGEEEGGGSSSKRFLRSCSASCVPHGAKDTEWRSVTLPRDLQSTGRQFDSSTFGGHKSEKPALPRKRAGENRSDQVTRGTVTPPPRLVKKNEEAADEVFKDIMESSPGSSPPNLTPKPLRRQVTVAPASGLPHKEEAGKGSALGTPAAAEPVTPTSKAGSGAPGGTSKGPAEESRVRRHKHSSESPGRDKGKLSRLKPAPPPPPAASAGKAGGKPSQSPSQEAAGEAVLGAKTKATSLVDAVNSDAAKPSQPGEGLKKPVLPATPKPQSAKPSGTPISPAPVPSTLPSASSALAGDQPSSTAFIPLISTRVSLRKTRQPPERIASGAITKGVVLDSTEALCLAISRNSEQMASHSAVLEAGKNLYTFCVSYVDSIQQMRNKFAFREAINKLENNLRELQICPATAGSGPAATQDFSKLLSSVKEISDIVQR

As for “abltide-displaying cells: E. coli MC1061 displaying KKGEAIYAAPFA fused via spacer GGQSGQ to the N-terminus of the eCPX display scaffold”, the “percentage of fluorescent cells” value in the data set on Abl kinase [1] is given as roughly 96%.
As to `CC[C@H](C)[C@H](NC(=O)[C@H](C)NC(=O)[C@@H](N)CCC(=O)O)C(=O)N[C@@H](Cc1ccc(O)cc1)C(=O)N[C@@H](C)C(=O)N[C@@H](C)C(=O)N1CCC[C@H]1C(=O)N[C@@H](Cc1ccccc1)C(=O)N[C@@H](C)C(=O)N[C@@H](CCCCN)C(=O)N[C@@H](CCCCN)C(=O)N[C@@H](CCCCN)C(=O)O` [abltide] (H-EAIYAAPFAKKK-OH), the IC50 on Abl TK (50 µM ATP) stood at 21.5 ± 2.64 µM; on Abl TK (500 µM ATP) it was 37.5 ± 3.95 µM.
As for EAIFAAPYAKKK [[Y4F,F8Y]], the “inhibition of kinase activity / competition” value at Abl TK (in words, peptide concentrations ranging from 64 to 0.25 µM, 0.5 U/mL kinase, 30 min, analogue tested with 500 µM ATP, average of two replicates) is “did not inhibit kinase activity in the concentration range tested”. The “phosphorylation by Abl kinase” value with Abl kinase [2] is recorded as “is not phosphorylated by Abl kinase”.
With “Abl TK: Human active Abl (121 kDa, 1067 U/mg, Merck Millipore)”, the specific activity in data set [3] is recorded as 1067 U/mg.
